# Laboratory results from ChEMBL document CHEMBL1697781, “Assessment of the health effects of chemicals in humans: II. Construction of an adverse effects database for QSAR modeling” (Curr Drug Discov Technol, 2004).
# How the values were obtained:
# Conditions in all cases: human; call rule not given here
# Hepatotoxicity [1] = experiment: FDA HLAED, liver enzyme composite activity
# Hepatotoxicity [2] = experiment: FDA HLAED, alkaline phosphatase increase
# Hepatotoxicity [3] = experiment: FDA HLAED, serum glutamic oxaloacetic transaminase (SGOT) increase
# Hepatotoxicity [4] = experiment: FDA HLAED, serum glutamic pyruvic transaminase (SGPT) increase
# Hepatotoxicity [5] = experiment: FDA HLAED, lactate dehydrogenase (LDH) increase
# Hepatotoxicity [6] = experiment: FDA HLAED, gamma-glutamyl transferase (GGT) increase
# For GGT Increase - Index Value in this document: reference of the scale not given here.
# For LDH Increase - Index Value in this document: reference of the scale not given here.
Compound,Composite Activity - Active (Hepatotoxicity [1]),Composite Activity - Marginal (Hepatotoxicity [1]),Composite Activity - Score (Hepatotoxicity [1]),Alkaline Phosphatase Increase - Activity Score (Hepatotoxicity [2]),Alkaline Phosphatase Increase - Index Value (Hepatotoxicity [2]),Alkaline Phosphatase Increase - Number of Reports (Hepatotoxicity [2]),SGOT Increase - Activity Score (Hepatotoxicity [3]),SGOT Increase - Index Value (Hepatotoxicity [3]),SGOT Increase - Number of Reports (Hepatotoxicity [3]),SGPT Increase - Activity Score (Hepatotoxicity [4]),SGPT Increase - Index Value (Hepatotoxicity [4]),SGPT Increase - Number of Reports (Hepatotoxicity [4]),LDH Increase - Activity Score (Hepatotoxicity [5]),LDH Increase - Index Value (Hepatotoxicity [5]),LDH Increase - Number of Reports (Hepatotoxicity [5]),GGT Increase - Activity Score (Hepatotoxicity [6]),GGT Increase - Index Value (Hepatotoxicity [6]),GGT Increase - Number of Reports (Hepatotoxicity [6])
CCN[C@@H]1C[C@H](N)[C@@H](O[C@H]2OC(CN)=CC[C@H]2N)[C@H](O)[C@H]1O[C@H]1OC[C@](C)(O)[C@H](NC)[C@H]1O [NETILMICIN],0,0,Inactive,Inactive,0,< 4,Inactive,0,< 4,Inactive,0,< 4,Inactive,0,< 4,Inactive,0,< 4
Cc1ccc(Cl)c(Nc2ccccc2C(=O)O)c1Cl [MECLOFENAMIC ACID],0,0,Inactive,Inactive,0,< 4,Inactive,0,< 4,Inactive,0,< 4,Inactive,0,< 4,Inactive,0,< 4
O=C(O)c1cc(/N=N/c2ccc(O)c(C(=O)O)c2)ccc1O [OLSALAZINE],0,0,Inactive,Inactive,0.7,< 4,Inactive,2.2,< 4,Inactive,1.5,< 4,Inactive,0.7,< 4,Inactive,0,< 4
CCC(=O)O[C@H]1CC[C@H]2[C@@H]3CCC4=CC(=O)CC[C@]4(C)[C@H]3CC[C@]12C [TESTOSTERONE PROPIONATE],0,0,Inactive,Inactive,0,< 4,Inactive,4.8,< 4,Inactive,7.2,< 4,Inactive,2.4,< 4,Inactive,4.8,< 4
C#CCN(C)[C@H](C)Cc1ccccc1 [SELEGILINE],0,0,Inactive,Inactive,2.2,>= 4,Inactive,0.4,< 4,Inactive,1.5,>= 4,Inactive,0,< 4,Inactive,1.8,>= 4
Cc1ccc(C)c(OCCCC(C)(C)C(=O)O)c1 [GEMFIBROZIL],0,0,Inactive,Inactive,0,< 4,Inactive,0,< 4,Inactive,0,< 4,Inactive,0,< 4,Inactive,0,< 4
C[C@]12CC[C@H]3[C@@H](CCC4=CC(=O)CC[C@@]43C)[C@@H]1CC[C@@H]2OC(=O)Cc1ccccc1 [TESTOSTERONE PHENYLACETATE],0,0,Inactive,Inactive,0,< 4,Inactive,4.8,< 4,Inactive,7.2,< 4,Inactive,2.4,< 4,Inactive,4.8,< 4
CCOC(=O)/C=C(C)/C=C/C=C(C)/C=C/c1c(C)cc(OC)c(C)c1C [ETRETINATE],2,1,Active,Active,5.3,>= 4,Active,5.3,>= 4,Marginally Active,3.2,>= 4,Inactive,2.9,>= 4,Inactive,0.6,< 4
